{"source": "patent EP1433789A1", "about": "“Pyrrolopyrazines and their use as selective apoptosis inducers” (Aponetics AG, priority 2002, dated 2004)", "key": {"HeLa [1]": {"system": "HeLa", "experiment": "AnnexinV/7-AAD staining", "assay_type": "cell-based, human", "details": "10 µM, 24 h treatment", "experimental": "(§1) Adherent cells (1 - 2*10^5) are 24 h prior to compound treatment seeded into 24 well tissue culture plates. Suspension cells are pipetted into P-tubes immediately before treatment. Test compounds are added leading to a final concentrations of 10 µM. After 24 h treatment cells are harvested (in case of adherent cells by trypsinization) and transferred to FACS tubes (BD Biosciences). After centrifugation and removal of the supernatant, 100 µl complete medium containing AnnexinV-GST (10 µg) is added, mixed and incubated at 4°C for 30 minutes. Subsequently, the cells are washed once with medium and incubated with 100 µl anti-GST Alexa 488 (Molecular Probes A-11131) in medium diluted 1:500 for 30 minutes at 4°C. Then, cells are washed once and stained with 1 µg/ml 7-aminoactinomycin D (7-AAD) (Molecular Probes A-1310) in 250 µl medium and analyzed on the FACSCalibur™. AnnexinV is measured in FL1 whereas 7-AAD is measured in FL3. In Table 5 the percentage of positively stained cells after treatment with the respective compounds are indicated. The following scores are used: Score 0 relates to less than 10%, score 1 relates to more than 10% but less than 50% and score 2 relates to more than 50% positivity."}, "Jurkat [2]": {"system": "Jurkat", "experiment": "AnnexinV/7-AAD staining", "assay_type": "cell-based, human", "details": "10 µM, 24 h treatment", "experimental": "as §1"}, "Ramos [3]": {"system": "Ramos", "experiment": "AnnexinV/7-AAD staining", "assay_type": "cell-based, human", "details": "10 µM, 24 h treatment", "experimental": "as §1"}, "HeLa [4]": {"system": "HeLa", "experiment": "Hoechst 33342 nuclear staining (Table 3)", "assay_type": "cell-based, human", "set-up": "key: 0 relating to no activity; 1 relating to weak activity comprising less than 50% of the cells; score 2 relating to strong activity comprising more than 50% of the cells", "experimental": "(§2) This assay is performed in 96 well tissue culture plates. Appropriate number of cells (adherent cells: 3 - 5*10^3, suspension cells: 8 - 10*10^3) are being seeded out in 80 µl complete medium. Adherent cells are incubated for 24 h for proper spreading out before addition of test compounds while suspension cells are immediately treated with test compounds after seeding out. The test compounds are added in 20 µl complete medium containing max 5% DMSO. The final compound concentrations in the assays are 10 µM, 3 µM,1 µM and 0.3 µM, respectively. After 24 h or 48 h incubation at culture conditions, 10 µl medium containing Hoechst 33342 dye (Sigma B-2261) at 2-5 µg/ml are added to each well. The assay plates are then further incubated for 30 minutes and subsequently analyzed with a standard inverted fluorescence microscope. The readout allows the determination of the fraction of apoptotic nuclei as well as other morphological criteria specific for apoptosis as a function of the treatment. The following scores are used: 0 relating to no activity, 1 relating to weak activity comprising less than 50% of the cells and score 2 relating to strong activity comprising more than 50% of the cells."}, "Jurkat [5]": {"system": "Jurkat", "experiment": "Hoechst 33342 nuclear staining (Table 3)", "assay_type": "cell-based, human", "set-up": "key: 0 relating to no activity; 1 relating to weak activity comprising less than 50% of the cells; score 2 relating to strong activity comprising more than 50% of the cells", "experimental": "as §2"}, "K562": {"system": "K562", "experiment": "Hoechst 33342 nuclear staining (Table 3)", "assay_type": "cell-based, human", "set-up": "key: 0 relating to no activity; 1 relating to weak activity comprising less than 50% of the cells; score 2 relating to strong activity comprising more than 50% of the cells", "experimental": "as §2"}, "Ramos [6]": {"system": "Ramos", "experiment": "Hoechst 33342 nuclear staining (Table 3)", "assay_type": "cell-based, human", "set-up": "key: 0 relating to no activity; 1 relating to weak activity comprising less than 50% of the cells; score 2 relating to strong activity comprising more than 50% of the cells", "details": "24h", "experimental": "as §2"}, "A20 [7]": {"system": "A20", "experiment": "AnnexinV/7-AAD staining", "assay_type": "cell-based, mouse", "details": "A20, 10 µM, 24 h treatment", "experimental": "as §1"}, "A20 [8]": {"system": "A20", "experiment": "Hoechst 33342 nuclear staining (Table 3)", "assay_type": "cell-based, mouse", "set-up": "key: 0 relating to no activity; 1 relating to weak activity comprising less than 50% of the cells; score 2 relating to strong activity comprising more than 50% of the cells", "experimental": "as §2"}}, "data": [{"substance": "[2-(3-Methoxy-6,6-dimethyl-5,6-dihydro-6a,7,12-triaza-dibenzofluoren-2-yloxy)-ethyl]-dimethyl-amine [No. 6]", "values": [{"measurement": "percentage of positively stained cells (AnnexinV/7-AAD staining)", "setting": "HeLa [1]", "result": "2 (score 2 relates to more than 50% positivity)"}, {"measurement": "percentage of positively stained cells (AnnexinV/7-AAD staining)", "setting": "Jurkat [2]", "result": "2 (score 2 relates to more than 50% positivity)"}, {"measurement": "percentage of positively stained cells (AnnexinV/7-AAD staining)", "setting": "Ramos [3]", "result": "2 (score 2 relates to more than 50% positivity)"}, {"measurement": "Hoechst 33342 nuclear staining", "setting": "HeLa [4]; 24h, conc 0.3 (µM)", "result": 0}, {"measurement": "Hoechst 33342 nuclear staining", "setting": "HeLa [4]; 24h, conc 1 (µM)", "result": 0}, {"measurement": "Hoechst 33342 nuclear staining", "setting": "HeLa [4]; 24h, conc 3 (µM)", "result": 0}, {"measurement": "Hoechst 33342 nuclear staining", "setting": "HeLa [4]; 24h, conc 10 (µM)", "result": "2 (score 2 relating to strong activity comprising more than 50% of the cells)"}, {"measurement": "Hoechst 33342 nuclear staining", "setting": "HeLa [4]; 48h, conc 0.3 (µM)", "result": 0}, {"measurement": "Hoechst 33342 nuclear staining", "setting": "HeLa [4]; 48h, conc 1 (µM)", "result": 0}, {"measurement": "Hoechst 33342 nuclear staining", "setting": "HeLa [4]; 48h, conc 3 (µM)", "result": 0}, {"measurement": "Hoechst 33342 nuclear staining", "setting": "HeLa [4]; 48h, conc 10 (µM)", "result": "2 (score 2 relating to strong activity comprising more than 50% of the cells)"}, {"measurement": "Hoechst 33342 nuclear staining", "setting": "Jurkat [5]; 24h, conc 0.3 (µM)", "result": 0}, {"measurement": "Hoechst 33342 nuclear staining", "setting": "Jurkat [5]; 24h, conc 1 (µM)", "result": 0}, {"measurement": "Hoechst 33342 nuclear staining", "setting": "Jurkat [5]; 24h, conc 3 (µM)", "result": 0}, {"measurement": "Hoechst 33342 nuclear staining", "setting": "Jurkat [5]; 24h, conc 10 (µM)", "result": "2 (score 2 relating to strong activity comprising more than 50% of the cells)"}, {"measurement": "Hoechst 33342 nuclear staining", "setting": "Jurkat [5]; 48h, conc 0.3 (µM)", "result": 0}, {"measurement": "Hoechst 33342 nuclear staining", "setting": "Jurkat [5]; 48h, conc 1 (µM)", "result": "2 (score 2 relating to strong activity comprising more than 50% of the cells)"}, {"measurement": "Hoechst 33342 nuclear staining", "setting": "Jurkat [5]; 48h, conc 3 (µM)", "result": "2 (score 2 relating to strong activity comprising more than 50% of the cells)"}, {"measurement": "Hoechst 33342 nuclear staining", "setting": "Jurkat [5]; 48h, conc 10 (µM)", "result": "2 (score 2 relating to strong activity comprising more than 50% of the cells)"}, {"measurement": "Hoechst 33342 nuclear staining", "setting": "K562; K562, 24h, conc 0.3 (µM)", "result": 0}, {"measurement": "Hoechst 33342 nuclear staining", "setting": "K562; K562, 24h, conc 1 (µM)", "result": 0}, {"measurement": "Hoechst 33342 nuclear staining", "setting": "K562; K562, 24h, conc 3 (µM)", "result": 0}, {"measurement": "Hoechst 33342 nuclear staining", "setting": "K562; K562, 24h, conc 10 (µM)", "result": "2 (score 2 relating to strong activity comprising more than 50% of the cells)"}, {"measurement": "Hoechst 33342 nuclear staining", "setting": "K562; K562, 48h, conc 0.3 (µM)", "result": 0}, {"measurement": "Hoechst 33342 nuclear staining", "setting": "K562; K562, 48h, conc 1 (µM)", "result": 0}, {"measurement": "Hoechst 33342 nuclear staining", "setting": "K562; K562, 48h, conc 3 (µM)", "result": 0}, {"measurement": "Hoechst 33342 nuclear staining", "setting": "K562; K562, 48h, conc 10 (µM)", "result": "2 (score 2 relating to strong activity comprising more than 50% of the cells)"}, {"measurement": "Hoechst 33342 nuclear staining", "setting": "Ramos [6]; conc 0.3 (µM)", "result": 0}, {"measurement": "Hoechst 33342 nuclear staining", "setting": "Ramos [6]; conc 1 (µM)", "result": 0}, {"measurement": "Hoechst 33342 nuclear staining", "setting": "Ramos [6]; conc 3 (µM)", "result": 0}, {"measurement": "Hoechst 33342 nuclear staining", "setting": "Ramos [6]; conc 10 (µM)", "result": "2 (score 2 relating to strong activity comprising more than 50% of the cells)"}, {"measurement": "percentage of positively stained cells (AnnexinV/7-AAD staining)", "setting": "A20 [7]", "result": "2 (score 2 relates to more than 50% positivity)"}, {"measurement": "Hoechst 33342 nuclear staining", "setting": "A20 [8]; A20, 24h, conc 0.3 (µM)", "result": 0}, {"measurement": "Hoechst 33342 nuclear staining", "setting": "A20 [8]; A20, 24h, conc 1 (µM)", "result": 0}, {"measurement": "Hoechst 33342 nuclear staining", "setting": "A20 [8]; A20, 24h, conc 3 (µM)", "result": 0}, {"measurement": "Hoechst 33342 nuclear staining", "setting": "A20 [8]; A20, 24h, conc 10 (µM)", "result": 0}, {"measurement": "Hoechst 33342 nuclear staining", "setting": "A20 [8]; A20, 48h, conc 0.3 (µM)", "result": 0}, {"measurement": "Hoechst 33342 nuclear staining", "setting": "A20 [8]; A20, 48h, conc 1 (µM)", "result": 0}, {"measurement": "Hoechst 33342 nuclear staining", "setting": "A20 [8]; A20, 48h, conc 3 (µM)", "result": 0}, {"measurement": "Hoechst 33342 nuclear staining", "setting": "A20 [8]; A20, 48h, conc 10 (µM)", "result": "2 (score 2 relating to strong activity comprising more than 50% of the cells)"}]}]}
